Measured values reported in patent publication US7754228B2, “Cytotoxic T-cell epitopes from Chlamydia” (Novartis Vaccines and Diagnostics, Srl, priority 2002, dated 2010).
“Also recorded” adds a separate entry of the source. Where two headings read alike, the source gives them in different places.

Tested on: HLA A2
Assay type: binding, human
Conditions: for binding to HLA A2 (in words): in vitro binding assay
[1] = 100 μM peptide, RMA-S/A2 cells, peptide and only anti-mouse secondary antibody, FACS mean
[2] = 10 μM peptide, RMA-S/A2 cells, peptide and only anti-mouse secondary antibody, FACS mean
[3] = 10 μM peptide, RMA-S/A2 cells, peptide, anti-A2 Mab BB7.2 and secondary antibody, FACS mean
[4] = 100 μM peptide, RMA-S/A2 cells, peptide, anti-A2 Mab BB7.2 and secondary antibody, FACS mean
[5] = 1 μM peptide, RMA-S/A2 cells, peptide and only anti-mouse secondary antibody, FACS mean
[6] = 1 μM peptide, RMA-S/A2 cells, peptide, anti-A2 Mab BB7.2 and secondary antibody, FACS mean

Sequence | High - B | Δ Mean | Mean 1 [1] | binding to HLA A2 (in words) (RMA-S/A2 cells) | Mean 1 [2] | Mean 2 [3] | Mean 2 [4] | rank in the binding assay among five epitopes predicted in protein 4376601 (CH44 to CH48) | Mean 1 [5] | Mean 2 [6] | ΔMean at high concentrations of peptide (in words) (high peptide concentrations, non-homogeneous fluorescent signal, most likely non-specific effects) | Mean 1 | Mean 2
ALWKENQAL (listed as Chlamydia pneumoniae) [CH54] | 91 | 251 | 140 | bind to HLA A2; also recorded: positive in the binding assay | – | – | – | – | – | – | – | – | –
WMMGVVLMI [CH45] | 51 | 211 | – | bind to HLA A2 | 147 | 358 | – | – | – | – | – | – | –
KLWEWLGYL [CH32] | 63 | 217 | – | bind to HLA A2 | 161 | 378 | – | – | – | – | – | – | –
YVVGFIIFL [CH44] | 31 | 191 | – | – | 150 | 341 | – | – | – | – | – | – | –
YLALDPDSV [CH48] | – | 303 | 148 | bind to HLA A2; also recorded: positive in the binding assay | – | – | 451 | strongest epitope using the binding assay | – | – | – | – | –
ILQEAEQMV [CH17] | 140 | 386 | 185 | bind to HLA A2 | – | – | 571 | – | – | – | – | – | –
YLLDFRWPL [CH37] | 84 | 238 | – | bind to HLA A2 | 164 | 402 | – | – | – | – | – | – | –
ILSFLPWLV [CH35] | 86 | 240 | – | bind to HLA A2 | 171 | 411 | – | – | – | – | – | – | –
KVLLGQEWV [CH42] | 40 | 200 | 136 | bind to HLA A2 | – | – | 336 | – | – | – | – | – | –
FLFQLGMQI [CH62] | 19 | 179 | 126 | – | – | – | 305 | – | – | – | – | – | –
QLLDEGKEL [CH1] | 37 | 283 | 206 | bind to HLA A2 | – | – | 489 | – | – | – | – | – | –
NLWSHYTDL (listed as Chlamydia pneumoniae) [CH53] | 48 | 209 | 141 | bind to HLA A2 | – | – | 350 | – | – | – | – | – | –
YLTSYSPYV (listed as Chlamydia pneumoniae) [CH15] | 76 | 322 | 235 | bind to HLA A2 | – | – | 557 | – | – | – | – | – | –
VMLFIGLGV [CH60] | −27 | 133 | – | – | 148 | 281 | – | – | – | – | – | – | –
NLAEQVTAL [CH43] | – | 286 | 153 | bind to HLA A2; also recorded: positive in the binding assay | – | – | 439 | – | – | – | – | – | –
NLAGGILSV (listed as Chlamydia pneumoniae) [CH56] | 80 | 240 | 143 | bind to HLA A2; also recorded: positive in the binding assay | – | – | 383 | – | – | – | – | – | –
QLLESLAPL [CH4] | 58 | 304 | 212 | bind to HLA A2 | – | – | 516 | – | – | – | – | – | –
FVSKFWFSL [CH57] | −17 | – | – | – | – | – | – | – | 127 | 270 | – | – | –
WLLRDDWLL [CH31] | 89 | 243 | 165 | bind to HLA A2 | – | – | 408 | – | – | – | – | – | –
WLVFFNPFV [CH12] | 0 | 211 | – | do not seem to bind | – | – | – | – | 204 | 415 | – | – | –
SILELLQFV [CH5] | 71 | 298 | – | bind to HLA A2 | 179 | 477 | – | – | – | – | – | – | –
VMLIFEKKV [CH14] | 12 | 258 | 197 | do not seem to bind | – | – | 455 | – | – | – | – | – | –
FLTLAWWFI [CH8] | 82 | 328 | – | bind to HLA A2 | – | – | – | – | 204 | 532 | – | – | –
LIQETLLFV [CH24] | 75 | 229 | 165 | bind to HLA A2 | – | – | 394 | – | – | – | – | – | –
WLFDLRFSV (listed as Chlamydia pneumoniae) [CH22] | 73 | 227 | – | bind to HLA A2 | 163 | 390 | – | – | – | – | – | – | –

Sequence | High - B | Δ Mean | Mean 1 [1] | binding to HLA A2 (in words) (RMA-S/A2 cells) | Mean 1 [2] | Mean 2 [3] | Mean 2 [4] | rank in the binding assay among five epitopes predicted in protein 4376601 (CH44 to CH48) | Mean 1 [5] | Mean 2 [6] | ΔMean at high concentrations of peptide (in words) (high peptide concentrations, non-homogeneous fluorescent signal, most likely non-specific effects) | Mean 1 | Mean 2
IALLVIFFV [CH18] | 0 | 230 | – | do not seem to bind | 198 | 428 | – | – | – | – | – | – | –
YLMQKLQNV [CH29] | 111 | 265 | 153 | bind to HLA A2 | – | – | 418 | – | – | – | – | – | –
LLLIFNNYL [CH36] | −16 | 138 | – | do not seem to bind | – | – | – | – | 163 | 301 | – | – | –
KLLAFPAFA [CH40] | 96 | 341 | 214 | bind to HLA A2 | – | – | 555 | – | – | – | – | – | –
NLSISVFLL [CH46] | 12 | 172 | 131 | – | – | – | 303 | – | – | – | – | – | –
ALMLLNNYV (listed as Chlamydia pneumoniae) [CH20] | 138 | 384 | 194 | bind to HLA A2 | – | – | 578 | – | – | – | – | – | –
ILLNEVPYV [CH2] | 133 | 372 | – | bind to HLA A2 | 264 | 636 | – | – | – | – | – | – | –
RLLEIIWGV [CH28] | 78 | 232 | – | bind to HLA A2 | 158 | 390 | – | – | – | – | – | – | –
SLLEEHPVV (listed as Chlamydia pneumoniae) [CH52] | 89 | 249 | 147 | bind to HLA A2; also recorded: positive in the binding assay | – | – | 396 | – | – | – | – | – | –
VLNLFFSAL (listed as Chlamydia pneumoniae) [CH3] | 0 | 224 | – | – | – | – | – | – | 195 | 419 | Very low ΔMean values | – | –
SLCAQSSYV (listed as Chlamydia pneumoniae) [CH50] | 91 | 251 | 130 | bind to HLA A2; also recorded: positive in the binding assay | – | – | 381 | – | – | – | – | – | –
FLQRGESFV [CH30] | 89 | 243 | 155 | bind to HLA A2 | – | – | 398 | – | – | – | – | – | –
KMSHFQQAL [CH49] | 23 | 183 | 134 | – | – | – | 317 | – | – | – | – | – | –
LLMLAISLV [CH33] | 0 | 154 | – | do not seem to bind | – | – | – | – | 164 | 318 | – | – | –
KLLKDHFDL (listed as Chlamydia pneumoniae) [CH34] | 81 | 235 | 155 | bind to HLA A2 | – | – | 390 | – | – | – | – | – | –
VQLAYVFDV (listed as Chlamydia pneumoniae) [CH16] | 0 | 232 | 201 | do not seem to bind | – | – | 433 | – | – | – | – | – | –
ALWGHNVLL (listed as Chlamydia pneumoniae) [CH55] | 98 | 258 | 153 | bind to HLA A2; also recorded: positive in the binding assay | – | – | 411 | – | – | – | – | – | –
KLSEQLEAL [CH41] | 101 | 261 | 162 | bind to HLA A2; also recorded: positive in the binding assay | – | – | 423 | – | – | – | – | – | –
LLLTLGYAV (listed as Chlamydia pneumoniae) [CH19] | 0 | 240 | 196 | do not seem to bind | – | – | 436 | – | – | – | – | – | –
NLSRQAFFA (listed as Chlamydia pneumoniae) [CH51] | 19 | 179 | 132 | – | – | – | 311 | – | – | – | – | – | –
VLFLLIRSV [CH61] | −37 | 123 | – | – | – | – | – | – | 135 | 258 | – | – | –
VIQAFGDFV [CH47] | 17 | 177 | – | – | 125 | 302 | – | – | – | – | – | – | –
TLWGSFVDV (listed as Chlamydia pneumoniae) [CH21] | 121 | 275 | 165 | bind to HLA A2 | – | – | 440 | – | – | – | – | – | –
YLIVFVLTI [CH59] | −37 | 123 | – | – | – | – | – | – | – | – | – | 150 | 273
NLLKRWQFV [CH38] | 73 | 227 | 170 | bind to HLA A2 | – | – | 397 | – | – | – | – | – | –
